The values that follow come from PubChem BioAssay (NCI).

Values joined by “and” are separate entries in the source; they are usually repeats but may differ in a detail not shown here. Identical values can stand only once.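 Interpolation was linear, between the two tested concentrations surrounding the appropriate level; five concentrations were tested over 48 hours in 96-well plates. Here, GI50 denotes the concentration required for 50% inhibition of growth. TGI marks complete inhibition of growth.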 A value given as a limit tells only on which side of the number the result lay.

Some test systems named below: CCRF-CEM leukemia; HCT-116 colon; HT29 colon; MALME-3M melanoma; NCI-H23 lung; OVCAR-5 ovarian; SN12C renal; SNB-19 CNS.
Assay in all cases: growth of human tumour cells (NCI), 48 h

Take `CC(=O)CCn1ncc(Cl)c(Cl)c1=O`: the TGI was greater than 100 µM with CCRF-CEM leukemia; 27.9 µM with HCT-116 colon; 34.1 µM with HT29 colon; 36.2 µM in the assay with MALME-3M melanoma; 32.6 µM in the assay with NCI-H23 lung; 33.2 µM in the assay on OVCAR-5 ovarian. The TGI in the assay on SN12C renal was determined as 27.9 µM; in the assay with SNB-19 CNS, 32.9 µM.

For `Nc1nc(Cl)cc(NCCCCCCCCNc2cc(Cl)nc(N)n2)n1`, the TGI in the assay on CCRF-CEM leukemia, with HCT-116 colon, with HT29 colon, in the assay on NCI-H23 lung, in the assay with SN12C renal and in the assay on SNB-19 CNS was greater than 100 µM each time.

For `CCC12CCCN(Cc3ccccc3)C1c1c(n(C)c3ccccc13)CC2` (configuration not stated), the TGI in the assay with CCRF-CEM leukemia, in the assay with HCT-116 colon, with HT29 colon, with MALME-3M melanoma, in the assay with NCI-H23 lung and with SN12C renal was greater than 253 µM each time. In addition, the TGI in the assay with SNB-19 CNS was greater than 253 µM.

In the case of `COC(=O)C(C(=O)c1ccccc1)C(C(=O)C(=O)Nc1ccc(OC)cc1OC)C(=O)C(=O)c1ccc(C)cc1` (configuration not stated), the TGI with CCRF-CEM leukemia, with HCT-116 colon, in the assay with HT29 colon, in the assay with MALME-3M melanoma, with NCI-H23 lung and with OVCAR-5 ovarian was greater than 100 µM in each case. For the same compound, the TGI in the assay with SN12C renal and in the assay on SNB-19 CNS was greater than 100 µM throughout.

As for `CN1CC(=O)N2Cc3ccccc3-n3cccc3C2C1` (configuration not stated), the TGI in the assay on HCT-116 colon, in the assay with HT29 colon, in the assay on MALME-3M melanoma, in the assay on NCI-H23 lung, with OVCAR-5 ovarian and with SN12C renal was greater than 100 µM in each case. Also, the TGI with SNB-19 CNS is greater than 100 µM.

Regarding `Cc1cn2c(=O)c3ncn(C4OC(CO)C(O)C4O)c3n(C)c2n1` (configuration not stated), the TGI in the assay with CCRF-CEM leukemia, in the assay with HCT-116 colon, in the assay with HT29 colon, in the assay on MALME-3M melanoma, in the assay on NCI-H23 lung and in the assay with OVCAR-5 ovarian was greater than 100 µM throughout. The TGI in the assay on SN12C renal and with SNB-19 CNS was greater than 100 µM throughout.

For `CC12C/C(=C\c3ccccc3)C(=O)C3C1CCCC32`, the TGI in the assay on CCRF-CEM leukemia, in the assay on HCT-116 colon, with HT29 colon, in the assay with MALME-3M melanoma, in the assay with NCI-H23 lung and in the assay with OVCAR-5 ovarian was greater than 100 µM each time. For the same compound, the TGI with SN12C renal and in the assay on SNB-19 CNS was greater than 100 µM throughout.

On to `OC(CC1SCCCS1)c1ccccc1` (configuration not stated), for which the TGI in the assay with CCRF-CEM leukemia, in the assay with HCT-116 colon, in the assay on HT29 colon, in the assay on MALME-3M melanoma, in the assay with NCI-H23 lung and in the assay on OVCAR-5 ovarian was greater than 100 µM each time. The TGI with SN12C renal and with SNB-19 CNS was greater than 100 µM in each case.

`O=C(CCN(C(=O)O)S(=O)(=O)c1ccc(NC(=O)c2ccccc2)cc1)Nc1ccccc1`: the TGI in the assay with CCRF-CEM leukemia was greater than 81.2 µM; in the assay with HCT-116 colon, greater than 69.5 µM; with HT29 colon it was greater than 100 µM; in the assay with MALME-3M melanoma it was greater than 100 µM; in the assay with NCI-H23 lung, greater than 100 µM; in the assay with OVCAR-5 ovarian, greater than 100 µM. The TGI with SN12C renal and with SNB-19 CNS was greater than 100 µM throughout.

Turning to `CC(C)C(CCl)NC(=O)c1cccc(C(=O)N[C@H](CCl)C(C)C)n1` (stereo in doubt), the TGI in the assay on CCRF-CEM leukemia, with HCT-116 colon, in the assay with HT29 colon, in the assay on MALME-3M melanoma, with NCI-H23 lung and in the assay on OVCAR-5 ovarian was greater than 100 µM in each case. Also, the TGI in the assay on SN12C renal and in the assay with SNB-19 CNS was greater than 100 µM in each case.

Take `CCN(CC)CCCN1CCc2c([nH]c3ccccc23)C1c1cccnc1` (configuration not stated): the TGI with CCRF-CEM leukemia, in the assay on HCT-116 colon, in the assay on HT29 colon, in the assay on MALME-3M melanoma, with NCI-H23 lung and with OVCAR-5 ovarian was greater than 100 µM each time. For the same compound, the TGI in the assay with SN12C renal and in the assay on SNB-19 CNS was greater than 100 µM each time.

In the case of `CC(C)N(C(=O)C12C3C4C1C1C4(C#N)C3C12C#N)C(C)C` (configuration not stated), the TGI in the assay with CCRF-CEM leukemia, in the assay on HT29 colon, with MALME-3M melanoma, in the assay with NCI-H23 lung, in the assay on OVCAR-5 ovarian and in the assay on SN12C renal was greater than 100 µM in each case. Moreover, the TGI in the assay on SNB-19 CNS is greater than 100 µM.

As for `CC1(C)COC(C2(C)C(=O)C=C(c3ccccc3)c3ccccc32)=N1` (configuration not stated), the TGI in the assay with CCRF-CEM leukemia is greater than 100 µM; in the assay on HCT-116 colon it was greater than 100 µM; in the assay with HT29 colon, 99 µM; with MALME-3M melanoma, 63.8 µM; with NCI-H23 lung, greater than 100 µM; with SN12C renal, greater than 100 µM. The compound further had a TGI with SNB-19 CNS greater than 100 µM.

Consider `O=C1c2ccccc2C(=O)N1CCn1ccc(NC(c2ccccc2)(c2ccccc2)c2ccccc2)nc1=O`, for which the TGI in the assay on CCRF-CEM leukemia was determined as 59.3 µM; with HCT-116 colon it was 32.4 µM; in the assay on HT29 colon it was 30.5 µM; in the assay on MALME-3M melanoma, 43.2 µM; in the assay with NCI-H23 lung, 60.2 µM; in the assay on OVCAR-5 ovarian, 62.6 µM. The TGI with SN12C renal was 83 µM; in the assay with SNB-19 CNS, 86.1 µM.

Regarding `[N-]=[N+]=NC1(Cc2ccccc2)C(=O)c2cccc3c2N(CCC3)C1=O` (configuration not stated), the TGI in the assay on CCRF-CEM leukemia, with HCT-116 colon, with HT29 colon, in the assay on MALME-3M melanoma, in the assay with NCI-H23 lung and in the assay on OVCAR-5 ovarian was greater than 100 µM throughout. The TGI in the assay with SN12C renal was greater than 100 µM.

Turning to `CCCCOC(=O)CNC(=O)OC/C=C/C#CC#C/C=C/COC(=O)NCC(=O)OCCCC`, the GI50 in the assay on CCRF-CEM leukemia, in the assay with HCT-116 colon, in the assay with HT29 colon, in the assay with MALME-3M melanoma, in the assay with NCI-H23 lung and in the assay on OVCAR-5 ovarian was greater than 100 µM each time. Further, the GI50 in the assay with SN12C renal and in the assay on SNB-19 CNS was greater than 100 µM throughout. In addition, the TGI with CCRF-CEM leukemia, in the assay on HCT-116 colon, with HT29 colon, with MALME-3M melanoma, with NCI-H23 lung and in the assay on OVCAR-5 ovarian was greater than 100 µM throughout. For the same compound, the TGI with SN12C renal and with SNB-19 CNS was greater than 100 µM in each case.

Turning to `O=[N+]([O-])c1cccc(C2=NN(c3ccccc3)C[N+](c3ccc(Br)cc3)=N2)c1`, the TGI with HCT-116 colon, with HT29 colon, in the assay on MALME-3M melanoma, with NCI-H23 lung, in the assay on OVCAR-5 ovarian and with SN12C renal was greater than 100 µM throughout. In the assay on SNB-19 CNS, this compound had a TGI greater than 100 µM.

For `O=c1/c(=C/c2ccccc2[N+](=O)[O-])sc2nnc(-c3ccco3)n12`, the TGI in the assay on CCRF-CEM leukemia is 49.8 µM; with HCT-116 colon, 58.8 µM; in the assay on HT29 colon it was greater than 100 µM; in the assay on MALME-3M melanoma, 47.1 µM; with NCI-H23 lung it was 64 µM; with OVCAR-5 ovarian it was greater than 100 µM. For the same compound, the TGI was greater than 100 µM with SN12C renal and 56.3 µM in the assay with SNB-19 CNS.

Turning to `CCC(=O)CC(=O)CCC(=O)Nc1cc(C)ccc1C`, the TGI in the assay on CCRF-CEM leukemia, in the assay on HCT-116 colon, in the assay on HT29 colon, with MALME-3M melanoma, in the assay with NCI-H23 lung and with SN12C renal was greater than 100 µM in each case. For the same compound, the TGI with SNB-19 CNS was greater than 100 µM.

On to `O=C1CCC(Cl)=CC2CCCN12` (configuration not stated), for which the TGI in the assay with HCT-116 colon, in the assay with HT29 colon, in the assay on MALME-3M melanoma, with NCI-H23 lung, with OVCAR-5 ovarian and in the assay with SN12C renal was greater than 100 µM in each case. In addition, the TGI in the assay with SNB-19 CNS was greater than 100 µM.

On to `N#CN/C(N)=N/CO`, for which the TGI with CCRF-CEM leukemia was greater than 100 µM; in the assay with HCT-116 colon it was greater than 64.4 µM; in the assay on HT29 colon it was greater than 100 µM; in the assay with MALME-3M melanoma, greater than 100 µM; in the assay with NCI-H23 lung, greater than 100 µM; with OVCAR-5 ovarian it was greater than 100 µM. The TGI in the assay on SN12C renal and with SNB-19 CNS was greater than 100 µM each time.

Take `CC(C)(C)NNC(=O)CCn1[nH]c(=O)c(Cl)c(Cl)c1=O`: the TGI in the assay with CCRF-CEM leukemia, in the assay with HT29 colon, in the assay with MALME-3M melanoma, in the assay on NCI-H23 lung, in the assay on OVCAR-5 ovarian and with SN12C renal was greater than 100 µM each time. This compound also gave a TGI with SNB-19 CNS greater than 100 µM.

`COc1ccc2occ(CCC(=O)O)c2c1`: the TGI in the assay with CCRF-CEM leukemia, in the assay on HCT-116 colon, in the assay on HT29 colon, with NCI-H23 lung, in the assay on SN12C renal and with SNB-19 CNS was greater than 100 µM throughout.

On to `Clc1ccc2c(c1)[nH]c1c2nc2ccccn21`, for which the GI50 in the assay with CCRF-CEM leukemia is 22.8 µM and 7.18 µM; in the assay with MALME-3M melanoma it was > 100 µM and 17.5 µM; in the assay on OVCAR-5 ovarian, 38.8 µM and 16.5 µM; in the assay with SN12C renal, 36.1 µM and 15.4 µM. The TGI was 71.3 µM and 48.9 µM with CCRF-CEM leukemia; 48.3 µM and 46.6 µM in the assay with HCT-116 colon; 45.4 µM and 28.9 µM in the assay on HT29 colon; > 100 µM and 35.7 µM in the assay with MALME-3M melanoma; 72.3 µM and 44.9 µM in the assay with NCI-H23 lung; > 100 µM and 30.1 µM in the assay with OVCAR-5 ovarian. The TGI is > 100 µM and 32.2 µM in the assay with SN12C renal; 58.6 µM and 35.3 µM in the assay with SNB-19 CNS.

For `O=C(Nc1ccn(CCO)c(=O)n1)c1ccccc1`, the TGI in the assay on CCRF-CEM leukemia, with HCT-116 colon, in the assay on HT29 colon, in the assay with MALME-3M melanoma, in the assay with OVCAR-5 ovarian and with SN12C renal was greater than 100 µM throughout.
